Experimental data as given in patent US10004701B2, “Methods and compositions for treating infection” (UNIVERSITY OF ROCHESTER, priority 2012, dated 2018).
Counter-ions that a name gives are not always drawn. Like-named read-outs stand apart in the source and are kept apart here.

Tests used:
Experiment in all cases: AK assay 384-well format, Prestwick library screening
[1] = test system: E. faecium; type: cell-based, Enterococcus faecium; conditions: 50 μM final drug concentration; for AK-based Prestwick Library Screening Results, E. faecium (increase in extracellular AK activity) / fold induction at 50 µM: cutoff for positive-scoring molecules 3-fold increase; for fold induction at 50 µM: Enterococcus faecium, 3 h
[2] = test system: A. baumannii strain 98-37-09; type: cell-based, Acinetobacter baumannii; conditions: 50 μM final drug concentration; for AK-based Prestwick Library Screening Results, A. baumannii (increase in extracellular AK activity) / fold induction at 50 µM: cutoff for positive-scoring molecules 3-fold increase; for fold induction at 50 µM: Acinetobacter baumannii, 983709, 3 h
[3] = test system: K. pneumoniae; type: cell-based, Klebsiella pneumoniae; conditions: 50 μM final drug concentration; for AK-based Prestwick Library Screening Results, K. pneumoniae (increase in extracellular AK activity) / fold induction at 50 µM: cutoff for positive-scoring molecules 3-fold increase; for fold induction at 50 µM: Klebsiella pneumoniae, 3 h
[4] = test system: S. aureus strain USA300-0114; type: cell-based, Staphylococcus aureus; conditions: 50 μM final drug concentration; for AK-based Prestwick Library Screening Results, S. aureus (increase in extracellular AK activity) / fold induction at 50 µM: cutoff for positive-scoring molecules 3-fold increase; for fold induction at 50 µM: Staphylococcus aureus, USA300, 3 h
[5] = test system: E. coli; type: cell-based, Escherichia coli; conditions: 50 μM final drug concentration; for AK-based Prestwick Library Screening Results, E. coli (increase in extracellular AK activity) / fold induction at 50 µM: cutoff for positive-scoring molecules 3-fold increase; for fold induction at 50 µM: Escherichia coli, 3 h
[6] = test system: E. cloacae; type: cell-based, Enterobacter cloacae; conditions: 50 μM final drug concentration; for AK-based Prestwick Library Screening Results, E. cloacae (increase in extracellular AK activity) / fold induction at 50 µM: cutoff for positive-scoring molecules 3-fold increase; for fold induction at 50 µM: Enterobacter cloacae, 3 h
[7] = test system: P. aeruginosa; type: cell-based, Pseudomonas aeruginosa; conditions: 50 μM final drug concentration; for AK-based Prestwick Library Screening Results, P. aeruginosa (increase in extracellular AK activity) / fold induction at 50 µM: cutoff for positive-scoring molecules 3-fold increase; for fold induction at 50 µM: Pseudomonas aeruginosa, 3 h
[8] = 384-well format, read-out: AK-based Prestwick Library Screening Results, E. faecium (increase in extracellular AK activity)
[9] = 384-well format, read-out: AK-based Prestwick Library Screening Results, A. baumannii (increase in extracellular AK activity)
[10] = 384-well format, read-out: AK-based Prestwick Library Screening Results, K. pneumoniae (increase in extracellular AK activity)
[11] = 384-well format, read-out: AK-based Prestwick Library Screening Results, S. aureus (increase in extracellular AK activity)
[12] = 384-well format, read-out: AK-based Prestwick Library Screening Results, E. coli (increase in extracellular AK activity)
[13] = 384-well format, read-out: AK-based Prestwick Library Screening Results, E. cloacae (increase in extracellular AK activity)
[14] = 384-well format, read-out: AK-based Prestwick Library Screening Results, P. aeruginosa (increase in extracellular AK activity)

For `CC(C)(CO)[C@@H](O)C(=O)NCCCO` [Panthenol (D)], which “AK-based Prestwick Library Screening Results, E. faecium (increase in extracellular AK activity)” value ([1]; 384-well format) is on record?
Its value is 0.8.

And the “AK-based Prestwick Library Screening Results, A. baumannii (increase in extracellular AK activity)” value ([2]; 384-well format)?
Its value is 0.8.

What about the “AK-based Prestwick Library Screening Results, K. pneumoniae (increase in extracellular AK activity)” value ([3]; 384-well format) of the same compound?
The value was 0.7.

What about the “AK-based Prestwick Library Screening Results, S. aureus (increase in extracellular AK activity)” value ([4]; 384-well format) of the same compound?
Its value is 0.6.

And the “AK-based Prestwick Library Screening Results, E. coli (increase in extracellular AK activity)” value ([5]; 384-well format)?
The value was 0.9.

What about the “AK-based Prestwick Library Screening Results, E. cloacae (increase in extracellular AK activity)” value ([6]; 384-well format) of the same compound?
Its value is 1.0.

What about the “AK-based Prestwick Library Screening Results, P. aeruginosa (increase in extracellular AK activity)” value ([7]; 384-well format) of the same compound?
The value was 0.7.

How did the “AK-based Prestwick library screening result, E. faecium (fold increase in extracellular AK activity)” value ([1]; planktonic E. faecium, positive cutoff 3-fold increase) turn out when `CNC(=O)c1c(I)c(C(=O)NCC(=O)Nc2c(I)c(C(=O)O)c(I)c(C(=O)NCCO)c2I)c(I)c(N(C)C(C)=O)c1I` [loxaglic acid] was run?
The value was 0.9.

And the “AK-based Prestwick library screening result, A. baumannii (fold increase in extracellular AK activity)” value ([2]; planktonic A. baumannii, positive cutoff 3-fold increase)?
The value was 0.8.

What about the “AK-based Prestwick library screening result, K. pneumoniae (fold increase in extracellular AK activity)” value ([3]; planktonic K. pneumoniae, positive cutoff 3-fold increase) of the same compound?
Its value is 0.8.

And the “AK-based Prestwick library screening result, S. aureus (fold increase in extracellular AK activity)” value ([4]; planktonic S. aureus, positive cutoff 3-fold increase)?
Its value is 0.6.

What about the “AK-based Prestwick library screening result, E. coli (fold increase in extracellular AK activity)” value ([5]; planktonic E. coli, […]) of the same compound?
The value was 0.9.

What about the “AK-based Prestwick library screening result, E. cloacae (fold increase in extracellular AK activity)” value ([6]; planktonic E. cloacae, positive cutoff 3-fold increase) of the same compound?
The value was 1.1.

What about the “AK-based Prestwick library screening result, P. aeruginosa (fold increase in extracellular AK activity)” value ([7]; planktonic P. aeruginosa, positive cutoff 3-fold increase) of the same compound?
Its value is 0.8.

What does the source list for `Cc1onc(-c2ccccc2Cl)c1C(=O)N[C@@H]1C(=O)N2[C@@H]1SC(C)(C)[C@@H]2C(=O)O` [Cloxacillin sodium salt]?
fold induction at 50 µM [1, 8]: 1; fold induction at 50 µM [2, 9]: 1.3; fold induction at 50 µM [3, 10]: 0.7; fold induction at 50 µM [4, 11]: 5.3; fold induction at 50 µM [5, 12]: 1; fold induction at 50 µM [6, 13]: 1; fold induction at 50 µM [7, 14]: 1

What does the source list for `CC1COc2c(N3CCN(C)CC3)c(F)cc3c(=O)c(C(=O)O)cn1c23` (stereo not drawn) [Ofloxacin]?
fold induction at 50 µM ([1]; planktonic E. faecium, 384-well, read-out: AK-based Prestwick Library Screening Results: E. faecium (increase in extracellular AK activity)): 1.4; fold induction at 50 µM ([2]; planktonic A. baumannii, 384-well, read-out: AK-based Prestwick Library Screening Results: A. baumannii (increase in extracellular AK activity)): 3.7; fold induction at 50 µM ([3]; planktonic K. pneumoniae, 384-well, read-out: AK-based Prestwick Library Screening Results: K. pneumoniae (increase in extracellular AK activity)): 1; fold induction at 50 µM ([4]; planktonic S. aureus, 384-well, read-out: AK-based Prestwick Library Screening Results: S. aureus (increase in extracellular AK activity)): 2.8; fold induction at 50 µM ([5]; planktonic E. coli, 384-well, read-out: AK-based Prestwick Library Screening Results: E. coli (increase in extracellular AK activity)): 15.7; fold induction at 50 µM ([6]; planktonic E. cloacae, 384-well, read-out: AK-based Prestwick Library Screening Results: E. cloacae (increase in extracellular AK activity)): 4.1; fold induction at 50 µM ([7]; planktonic P. aeruginosa, 384-well, read-out: AK-based Prestwick Library Screening Results: P. aeruginosa (increase in extracellular AK activity)): 20

`Cc1cn([C@H]2C[C@H](N=[N+]=[N-])[C@@H](CO)O2)c(=O)[nH]c1=O` [Zidovudine, AZT] was tested. Which “AK-based Prestwick Library Screening Results, E. faecium (increase in extracellular AK activity)” value ([1]; planktonic E. faecium) did it give?
The value was 0.9.

And the “AK-based Prestwick Library Screening Results, A. baumannii (increase in extracellular AK activity)” value ([2]; planktonic A. baumannii)?
The value was 1.8.

What about the “AK-based Prestwick Library Screening Results, K. pneumoniae (increase in extracellular AK activity)” value ([3]; planktonic K. pneumoniae) of the same compound?
Its value is 1.2.

And the “AK-based Prestwick Library Screening Results, S. aureus (increase in extracellular AK activity)” value ([4]; planktonic S. aureus)?
The value was 0.6.

And the “AK-based Prestwick Library Screening Results, E. coli (increase in extracellular AK activity)” value ([5]; planktonic E. coli)?
The value was 2.1.

And the “AK-based Prestwick Library Screening Results, E. cloacae (increase in extracellular AK activity)” value ([6]; planktonic E. cloacae)?
The value was 4.2.

And the “AK-based Prestwick Library Screening Results, P. aeruginosa (increase in extracellular AK activity)” value ([7]; planktonic P. aeruginosa)?
The value was 0.6.

Which fold induction at 50 µM [1, 8] does the source give for `CN(C)C(=N)N=C(N)N` [Metformin hydrochloride] here?
The fold induction at 50 µM was 0.8.

And the fold induction at 50 µM [2, 9]?
Its fold induction at 50 µM is 0.4.

And the fold induction at 50 µM [3, 10]?
The fold induction at 50 µM was 0.4.

What about the fold induction at 50 µM [4, 11] of the same compound?
The fold induction at 50 µM was 0.4.

And the fold induction at 50 µM [5, 12]?
Its fold induction at 50 µM is 0.5.

What about the fold induction at 50 µM [6, 13] of the same compound?
The fold induction at 50 µM was 0.3.

What about the fold induction at 50 µM [7, 14] of the same compound?
Its fold induction at 50 µM is 0.3.
